Source: patent US7125847B1, “Mechanically activated channel blocker” (priority 2000, dated 2006)

Tested on: swelling-activated currents in ventricular myocytes
Assay: Perforated patch whole-cell swelling-activated currents in ventricular myocytes from rabbits with aortic regurgitation-induced CHF
Assay type: cell-based, rabbit
Details: 0.4 μM
Method: Ventricular myocytes were freshly isolated from New Zealand white rabbits with aortic regurgitation induced congestive heart failure using a collagenase-pronase dispersion method (Clemo et al., 1997, supra). Cells were stored in a modified Kraft-Bruhe solution (KOH 132 mM, glutamic acid 120 mM, KCl 2.5 mM, KH2PO4 10 mM, MgSO4 1.8 mM, K2EGTA 0.5 mM, glucose 11 mM, taurine 10 mM, Hepes 10 mM, pH 7.2). Myocytes were used within 6 h of harvesting and only quiescent cells with no evidence of membrane blebbing were selected for study.
Swelling activated currents were measured in myocytes according to the method of Clemo & Baumgarten (1997). Briefly, electrodes were pulled from glass capillaries to give a final tip diameter of […] and a resistance of 0.5–1 MW when filled with the standard electrode filling solution (K aspartate 120 mM, KCl 10 mM, NaCl 10 mM, MgSO4 3 mM, Hepes 10 mM, pH 7.1). Whole cell currents were recorded using an Axoclamp 200A. Pulse and ramp protocols, voltage clamp data acquisition and off-line data analysis were controlled with software written in ASYST. Both step and ramp voltage clamp protocols were applied with a holding potential of −80 mV. Currents were digitized at 1 KHz and low-pass filtered at 200 Hz. Whole cell currents were recorded using the amphotericin perforated patch technique. Solution changes were performed by bath perfusion that was completed within 10 s. The standard bath solution contained (NaCl 65 mM, KCl 5 mM, CaSO4 2.5 mM, MgSO4 0.5 mM, glucose 10 mM and Hepes 10 mM pH 7.2, and 130 mM (IT) or 283 mM (1.5 T) mannitol to control the osmolarity. Isotonic osmolarity was taken as 296 mosm (IT) and 444 mosm for hypertonic solution (1.5 T).
The myocytes were exposed to 1.0 T and 1.5 T solution in the absence (1.0 TC, 1.5 TC) and presence (1.0 TTX, 1.5 TTX) of 0.4 μM GsMTx-4. […] However, whole cell current was unaffected by GsMTx-4 when swelling-activated currents were inactivated by 1.5 T hypertonic saline (FIG. 9Bd). […] The remaining inward current is largely. ICI,swell. […]

GCLEFWWKCNPNDDKCCRPKLKCSKLFKLCNFSFGK [GsMTx-4]
effect on inward ICir,swell (1.0 T): significant reduction
effect on outward ICI,swell (1.0 T): no effect
effect on whole cell current when swelling-activated currents inactivated (1.5 T hypertonic saline): unaffected
